Results on 1 molecule are retold here after patent US8119808B2, “Tetrahydroquinoline derivatives as cannabinoid receptor modulators” (Bristol-Myers Squibb Company, priority 2003, dated 2012).

On to `N#Cc1ccc2c(c1)C[C@H](NS(=O)(=O)c1ccccc1)CN2C(=O)c1ccccc1`, for which the melting point fell in the range of 174 to 175 °C.

By melting point is commonly meant the temperature, or range, at which the solid turns liquid.
